Source: patent US10582709B2, “Butyrolactones as herbicides” (FMC Corporation, priority 2015, dated 2020)

Columns and labels:
Type in all cases: in vivo
[1] = system: barnyardgrass (Echinochloa crus-galli); assay: Test B flooded paddy test, barnyardgrass; settings: applied to paddy water at 2-leaf stage, 13 to 15 d, scale 0 no effect to 100 complete control
Description: (§1) Plant species in the flooded paddy test selected from rice (Oryza sativa), sedge, umbrella (small-flower umbrella sedge, Cyperus difformis), ducksalad (Heteranthera limosa), and barnyardgrass (Echinochloa crus-galli) were grown to the 2-leaf stage for testing. At time of treatment, test pots were flooded to 3 cm above the soil surface, treated by application of test compounds directly to the paddy water, and then maintained at that water depth for the duration of the test. Treated plants and controls were maintained in a greenhouse for 13 to 15 d, after which time all species were compared to controls and visually evaluated. Plant response ratings, summarized in Table B, are based on a scale of 0 to 100 where 0 is no effect and 100 is complete control. A dash (-) response means no test result.

[2] = system: ducksalad (Heteranthera limosa); assay: Test B flooded paddy test, ducksalad; settings: applied to paddy water at 2-leaf stage, 13 to 15 d, scale 0 no effect to 100 complete control
Description: as §1

[3] = system: rice (Oryza sativa); assay: Test B flooded paddy test, rice; settings: applied to paddy water at 2-leaf stage, 13 to 15 d, scale 0 no effect to 100 complete control
Description: as §1

[4] = system: sedge, umbrella (small-flower umbrella sedge, Cyperus difformis); assay: Test B flooded paddy test, umbrella sedge; settings: applied to paddy water at 2-leaf stage, 13 to 15 d, scale 0 no effect to 100 complete control
Description: as §1

[5] = system: barnyardgrass (Echinochloa crus-galli); assay: Test A preemergence, barnyardgrass; settings: visual rating after approx. 10 d, 0 to 100 scale, 0 no effect, 100 complete control
Source text: (§2) Seeds of plant species selected from barnyardgrass (Echinochloa crus-galli), crabgrass (large crabgrass, Digitaria sanguinalis), kochia (Kochia scoparia), ragweed (common ragweed, Ambrosia elatior), morningglory (Ipomoea spp.), velvetleaf (Abutilon theophrasti), ryegrass, Italian (Italian ryegrass, Lolium multiflorum), foxtail, giant (giant foxtail, Setaria faberii), wheat (Triticum aestivum), corn (Zea mays), and pigweed (Amaranthus retroflexus), were planted into a blend of loam soil and sand and treated preemergence with a directed soil spray using test chemicals formulated in a non-phytotoxic solvent mixture which included a surfactant. At the same time, plants selected from these crop and weed species and also blackgrass (Alopecurus myosuroides), and galium (catchweed bedstraw, Galium aparine), were planted in pots containing the same blend of loam soil and sand and treated with postemergence applications of test chemicals formulated in the same manner. Plants ranged in height from 2 to 10 cm and were in the one- to two-leaf stage for the postemergence treatment. Treated plants and untreated controls were maintained in a greenhouse for approximately 10 d, after which time all treated plants were compared to untreated controls and visually evaluated for injury. Plant response ratings, summarized in Table A, are based on a 0 to 100 scale where 0 is no effect and 100 is complete control. A dash (-) response means no test result.

[6] = system: kochia (Kochia scoparia); assay: Test A preemergence, kochia; settings: visual rating after approx. 10 d, 0 to 100 scale, 0 no effect, 100 complete control
Source text: as §2

[7] = system: ragweed (common ragweed, Ambrosia elatior); assay: Test A preemergence, ragweed; settings: visual rating after approx. 10 d, 0 to 100 scale, 0 no effect, 100 complete control
Source text: as §2

[8] = system: ryegrass, Italian (Italian ryegrass, Lolium multiflorum); assay: Test A preemergence, Italian ryegrass; settings: visual rating after approx. 10 d, 0 to 100 scale, 0 no effect, 100 complete control
Source text: as §2

[9] = system: foxtail, giant (giant foxtail, Setaria faberii); assay: Test A preemergence, giant foxtail; settings: visual rating after approx. 10 d, 0 to 100 scale, 0 no effect, 100 complete control
Source text: as §2

[10] = system: pigweed (Amaranthus retroflexus); assay: Test A preemergence, pigweed; settings: visual rating after approx. 10 d, 0 to 100 scale, 0 no effect, 100 complete control
Source text: as §2

[11] = system: barnyardgrass (Echinochloa crus-galli); assay: Test A postemergence, barnyardgrass; settings: visual rating after approx. 10 d, 0 to 100 scale, 0 no effect, 100 complete control
Source text: as §2

[12] = system: kochia (Kochia scoparia); assay: Test A postemergence, kochia; settings: visual rating after approx. 10 d, 0 to 100 scale, 0 no effect, 100 complete control
Source text: as §2

[13] = system: ragweed (common ragweed, Ambrosia elatior); assay: Test A postemergence, ragweed; settings: visual rating after approx. 10 d, 0 to 100 scale, 0 no effect, 100 complete control
Source text: as §2

[14] = system: ryegrass, Italian (Italian ryegrass, Lolium multiflorum); assay: Test A postemergence, Italian ryegrass; settings: visual rating after approx. 10 d, 0 to 100 scale, 0 no effect, 100 complete control
Source text: as §2

[15] = system: foxtail, giant (giant foxtail, Setaria faberii); assay: Test A postemergence, giant foxtail; settings: visual rating after approx. 10 d, 0 to 100 scale, 0 no effect, 100 complete control
Source text: as §2

[16] = system: wheat (Triticum aestivum); assay: Test A postemergence, wheat; settings: visual rating after approx. 10 d, 0 to 100 scale, 0 no effect, 100 complete control
Source text: as §2

[17] = system: corn (Zea mays); assay: Test A postemergence, corn; settings: visual rating after approx. 10 d, 0 to 100 scale, 0 no effect, 100 complete control
Source text: as §2

[18] = system: pigweed (Amaranthus retroflexus); assay: Test A postemergence, pigweed; settings: visual rating after approx. 10 d, 0 to 100 scale, 0 no effect, 100 complete control
Source text: as §2

[19] = system: blackgrass (Alopecurus myosuroides); assay: Test A postemergence, blackgrass; settings: visual rating after approx. 10 d, 0 to 100 scale, 0 no effect, 100 complete control
Source text: as §2

[20] = system: galium (catchweed bedstraw, Galium aparine); assay: Test A postemergence, galium; settings: visual rating after approx. 10 d, 0 to 100 scale, 0 no effect, 100 complete control
Source text: as §2

| Compound | Plant response rating, Barnyardgrass ([5]; 125 g ai/ha) | Plant response rating, Barnyardgrass ([5]; 500 g ai/ha) | Plant response rating, Kochia ([6]; 125 g ai/ha) | Plant response rating, Kochia ([6]; 500 g ai/ha) | Plant response rating, Ragweed ([7]; 125 g ai/ha) | Plant response rating, Ragweed ([7]; 500 g ai/ha) | Plant response rating, Ryegrass, Italian ([8]; 125 g ai/ha) | Plant response rating, Ryegrass, Italian ([8]; 500 g ai/ha) | Plant response rating, Foxtail, Giant ([9]; 125 g ai/ha) | Plant response rating, Foxtail, Giant ([9]; 500 g ai/ha) | Plant response rating, Pigweed ([10]; 125 g ai/ha) | Plant response rating, Pigweed ([10]; 500 g ai/ha) | Plant response rating, Barnyardgrass ([11]; 125 g ai/ha) | Plant response rating, Barnyardgrass ([11]; 500 g ai/ha) | Plant response rating, Kochia ([12]; 125 g ai/ha) | Plant response rating, Kochia ([12]; 500 g ai/ha) | Plant response rating, Ragweed ([13]; 125 g ai/ha) | Plant response rating, Ragweed ([13]; 500 g ai/ha) | Plant response rating, Ryegrass, Italian ([14]; 125 g ai/ha) | Plant response rating, Ryegrass, Italian ([14]; 500 g ai/ha) | also measured |
| --- | --- | --- | --- | --- | --- | --- | --- | --- | --- | --- | --- | --- | --- | --- | --- | --- | --- | --- | --- | --- | --- |
| O=C(Nc1ccccc1C(F)(F)F)C1C(=O)OCC1c1ccc(F)c(C(F)(F)F)c1 (racemic) [Compound 17] | 0 | 0 | 0 | 0 | 0 | 0 | 0 | 0 | 20 | 60 | 0 | 0 | 0 | 0 | 0 | 0 | 0 | 0 | 0 | 0 | Plant response rating, Flood, Barnyardgrass ([1]; 500 g ai/ha): 0; Plant response rating, Flood, Ducksalad ([2]; 500 g ai/ha): 0; Plant response rating, Flood, Rice ([3]; 500 g ai/ha): 0; Plant response rating, Flood, Sedge, Umbrella ([4]; 500 g ai/ha): 0; Plant response rating, Foxtail, Giant ([15]; 125 g ai/ha): 0; Plant response rating, Foxtail, Giant ([15]; 500 g ai/ha): 20; Plant response rating, Wheat ([16]; 125 g ai/ha): 0; Plant response rating, Wheat ([16]; 500 g ai/ha): 0; Plant response rating, Corn ([17]; 125 g ai/ha): 0; Plant response rating, Corn ([17]; 500 g ai/ha): 0; Plant response rating, Pigweed ([18]; 125 g ai/ha): 0; Plant response rating, Pigweed ([18]; 500 g ai/ha): 0; Plant response rating, Blackgrass ([19]; 125 g ai/ha): 0; Plant response rating, Blackgrass ([19]; 500 g ai/ha): 0; Plant response rating, Galium ([20]; 125 g ai/ha): 0; Plant response rating, Galium ([20]; 500 g ai/ha): 0 |
| O=C(Nc1ccccc1C(F)(F)F)C1C(=O)OCC1c1ccc(C(F)(F)F)cc1 (racemic) [Compound 9] | 0 | 0 | 0 | 20 | 0 | 0 | 0 | 20 | 30 | 80 | 0 | 0 | 0 | 0 | 0 | 0 | 0 | 0 | 0 | 0 | Plant response rating, Flood, Barnyardgrass ([1]; 250 g ai/ha): 0; Plant response rating, Flood, Barnyardgrass ([1]; 1000 g ai/ha): 0; Plant response rating, Flood, Ducksalad ([2]; 250 g ai/ha): 30; Plant response rating, Flood, Ducksalad ([2]; 1000 g ai/ha): 30; Plant response rating, Flood, Rice ([3]; 250 g ai/ha): 0; Plant response rating, Flood, Rice ([3]; 1000 g ai/ha): 0; Plant response rating, Flood, Sedge, Umbrella ([4]; 250 g ai/ha): 0; Plant response rating, Flood, Sedge, Umbrella ([4]; 1000 g ai/ha): 0; Plant response rating, Foxtail, Giant ([15]; 125 g ai/ha): 30; Plant response rating, Foxtail, Giant ([15]; 500 g ai/ha): 70; Plant response rating, Wheat ([16]; 125 g ai/ha): 0; Plant response rating, Wheat ([16]; 500 g ai/ha): 0; Plant response rating, Corn ([17]; 125 g ai/ha): 0; Plant response rating, Corn ([17]; 500 g ai/ha): 0; Plant response rating, Pigweed ([18]; 125 g ai/ha): 0; Plant response rating, Pigweed ([18]; 500 g ai/ha): 0; Plant response rating, Blackgrass ([19]; 125 g ai/ha): 0; Plant response rating, Blackgrass ([19]; 500 g ai/ha): 0; Plant response rating, Galium ([20]; 125 g ai/ha): 0; Plant response rating, Galium ([20]; 500 g ai/ha): 0 |
| O=C(Nc1ccccc1C(F)(F)F)C1C(=O)OCC1c1cccc(C(F)(F)F)c1 (racemic) [Compound 14] | 20 | 20 | 0 | 20 | 0 | 0 | 0 | 20 | 70 | 90 | 0 | 0 | 0 | 20 | 0 | 0 | 0 | 0 | 0 | 0 | Plant response rating, Flood, Barnyardgrass ([1]; 500 g ai/ha): 0; Plant response rating, Flood, Ducksalad ([2]; 500 g ai/ha): 0; Plant response rating, Flood, Rice ([3]; 500 g ai/ha): 0; Plant response rating, Flood, Sedge, Umbrella ([4]; 500 g ai/ha): 0; Plant response rating, Foxtail, Giant ([15]; 125 g ai/ha): 20; Plant response rating, Foxtail, Giant ([15]; 500 g ai/ha): 70; Plant response rating, Wheat ([16]; 125 g ai/ha): 0; Plant response rating, Wheat ([16]; 500 g ai/ha): 0; Plant response rating, Corn ([17]; 125 g ai/ha): 0; Plant response rating, Corn ([17]; 500 g ai/ha): 0; Plant response rating, Pigweed ([18]; 125 g ai/ha): 0; Plant response rating, Pigweed ([18]; 500 g ai/ha): 0; Plant response rating, Blackgrass ([19]; 125 g ai/ha): 0; Plant response rating, Blackgrass ([19]; 500 g ai/ha): 30; Plant response rating, Galium ([20]; 125 g ai/ha): 0; Plant response rating, Galium ([20]; 500 g ai/ha): 30 |
| O=C(Nc1cccc(F)c1C(F)(F)F)C1C(=O)OCC1c1ccc(F)c(C(F)(F)F)c1 (racemic) [Compound 18] | 0 | 0 | 0 | 0 | 0 | 0 | 0 | 0 | 0 | 40 | 0 | 0 | 0 | 0 | 0 | 0 | 0 | 0 | 0 | 0 | Plant response rating, Flood, Barnyardgrass ([1]; 500 g ai/ha): 0; Plant response rating, Flood, Ducksalad ([2]; 500 g ai/ha): 0; Plant response rating, Flood, Rice ([3]; 500 g ai/ha): 0; Plant response rating, Flood, Sedge, Umbrella ([4]; 500 g ai/ha): 0; Plant response rating, Foxtail, Giant ([15]; 125 g ai/ha): 0; Plant response rating, Foxtail, Giant ([15]; 500 g ai/ha): 30; Plant response rating, Wheat ([16]; 125 g ai/ha): 0; Plant response rating, Wheat ([16]; 500 g ai/ha): 0; Plant response rating, Corn ([17]; 125 g ai/ha): 0; Plant response rating, Corn ([17]; 500 g ai/ha): 0; Plant response rating, Pigweed ([18]; 125 g ai/ha): 0; Plant response rating, Pigweed ([18]; 500 g ai/ha): 0; Plant response rating, Blackgrass ([19]; 125 g ai/ha): 0; Plant response rating, Blackgrass ([19]; 500 g ai/ha): 0; Plant response rating, Galium ([20]; 125 g ai/ha): 0; Plant response rating, Galium ([20]; 500 g ai/ha): 0 |
